# In BindingDB's records for PubMed 10496952 (University of Virginia, 1999):
# pKi: −log10 of the molar value. Where “and” joins values, the source holds several entries; their conditions need not be identical. Equal values may be shown once.
# Columns and labels:
# Adenosine receptor A3 = biological target: T1, Adenosine receptor A3 (Homo sapiens, UniProt P0DMS8)
# T1 sequence (P0DMS8 whole entry): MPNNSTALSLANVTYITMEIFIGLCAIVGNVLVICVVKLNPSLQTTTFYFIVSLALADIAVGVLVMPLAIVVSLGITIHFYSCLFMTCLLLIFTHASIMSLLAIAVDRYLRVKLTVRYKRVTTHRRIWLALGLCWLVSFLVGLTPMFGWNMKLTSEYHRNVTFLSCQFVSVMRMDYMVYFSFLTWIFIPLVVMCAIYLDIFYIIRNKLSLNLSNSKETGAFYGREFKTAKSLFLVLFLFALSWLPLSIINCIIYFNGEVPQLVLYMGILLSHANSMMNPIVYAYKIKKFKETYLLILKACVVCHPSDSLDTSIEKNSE
# Adenosine receptor A2b = biological target: T2, Adenosine receptor A2b (Homo sapiens, UniProt P29275)
# T2 sequence (P29275 whole entry): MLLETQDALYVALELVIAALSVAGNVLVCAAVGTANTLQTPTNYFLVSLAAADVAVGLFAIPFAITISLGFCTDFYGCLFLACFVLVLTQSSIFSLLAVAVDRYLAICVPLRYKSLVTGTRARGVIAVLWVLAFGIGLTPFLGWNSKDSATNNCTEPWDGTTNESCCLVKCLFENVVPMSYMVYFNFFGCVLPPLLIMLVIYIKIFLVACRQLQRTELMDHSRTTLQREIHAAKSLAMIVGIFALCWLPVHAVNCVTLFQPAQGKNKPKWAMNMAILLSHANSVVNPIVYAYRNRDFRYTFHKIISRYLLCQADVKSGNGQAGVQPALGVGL
# Adenosine receptor A1 = biological target: T3, Adenosine receptor A1 (Homo sapiens, UniProt P30542)
# T3 sequence (P30542 whole entry): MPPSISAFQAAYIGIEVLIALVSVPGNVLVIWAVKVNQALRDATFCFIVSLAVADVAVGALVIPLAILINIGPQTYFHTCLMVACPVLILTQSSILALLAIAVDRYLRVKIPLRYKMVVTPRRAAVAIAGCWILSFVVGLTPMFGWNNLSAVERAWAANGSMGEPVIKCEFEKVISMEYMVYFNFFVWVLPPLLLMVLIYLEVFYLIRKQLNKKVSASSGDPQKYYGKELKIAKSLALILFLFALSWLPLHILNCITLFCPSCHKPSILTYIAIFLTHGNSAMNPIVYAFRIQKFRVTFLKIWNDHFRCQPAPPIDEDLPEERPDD
# Adenosine receptor A2a = Adenosine receptor A2a (Homo sapiens, UniProt P29274)
# Chain of Adenosine receptor A2a (P29274 whole entry): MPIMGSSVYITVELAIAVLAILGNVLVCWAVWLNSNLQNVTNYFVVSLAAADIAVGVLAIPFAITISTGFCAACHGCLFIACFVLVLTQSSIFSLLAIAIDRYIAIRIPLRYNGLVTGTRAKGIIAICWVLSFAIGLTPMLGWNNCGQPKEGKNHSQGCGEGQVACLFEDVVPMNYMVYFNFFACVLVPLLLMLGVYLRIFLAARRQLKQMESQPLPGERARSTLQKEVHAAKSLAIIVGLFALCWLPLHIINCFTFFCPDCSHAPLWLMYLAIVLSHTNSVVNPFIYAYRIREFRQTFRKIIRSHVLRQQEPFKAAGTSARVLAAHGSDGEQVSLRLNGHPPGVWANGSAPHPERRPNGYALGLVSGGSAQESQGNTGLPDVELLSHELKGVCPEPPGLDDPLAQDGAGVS
SMILES,pKi (Adenosine receptor A2b),also measured
CCCn1c(=O)c2nc[nH]c2n(CCC)c1=O,,pKi (Adenosine receptor A3): 6.29
"CCn1c(=O)c2[nH]c(-c3ccccc3)nc2n(CC)c1=O [1,3-Diethyl-8-phenyl-3,7-dihydro-purine-2,6-dione]",7.91,
Nc1nc(Cl)nc2c1ncn2[C@@H]1O[C@H](CO)[C@H](O)C1O (stereo partly specified) [2-Chloroadenosine],< 5.00,
CCCn1c(=O)[nH]c(=O)c2[nH]cnc21 [3-Propylxanthine (enprofylline)],,pKi (Adenosine receptor A1): < 5.00
CCNC(=O)C(=O)Nc1nc(Nc2ccccc2)c2ncn([C@@H]3O[C@H](CO)[C@@H](O)[C@H]3O)c2n1 [AB-NECA],< 5.00,
Nc1ccc(CCNc2nc(N)c3ncn(C4OC(CO)C(O)C4O)c3n2)cc1I (stereo unspecified) [CAS_190964],< 5.00,
CCCn1c(=O)c2[nH]c(-c3ccc(C=CC(=O)O)cc3)nc2n(CCC)c1=O [NSC_129447],7.29,
CCCn1c(=O)c2nc(-c3ccc(OCC(=O)O)cc3)[nH]c2n(Cc2ccc(N)c(I)c2)c1=O [NSC_163889],7.40 and 7.52,pKi (Adenosine receptor A2a): 7.02; pKi (Adenosine receptor A3): 7.82; pKi (Adenosine receptor A1): 7.15
